In patent publication US20190202877A1, “DERMASEPTIN-TYPE AND PISCIDIN-TYPE ANTIMICROBIAL PEPTIDES” (THE REGENTS OF THE UNIVERSITY OF COLORADO, a body corporate, priority 2014, published 2019):
Converted amounts (≈) assume the structure as drawn. Read-outs that look alike come from different tables or passages of the source.

What was measured:
[1] = system: methicillin sensitive Staph. aureus (MSSA); type: cell-based, Staphylococcus aureus; details: for MIC: MH medium, 37° C., 24 h; for MIC GM, MSSA: geometric mean of MIC from 12 different isolates of MSSA
Description: (§1) MICs were determined by a standard microtiter dilution method in Mueller Hinton (MH) medium. Briefly, cells were grown overnight at 37° C. in MH broth and were diluted in the same medium. Serial dilutions of the peptides were added to the microtiter plates in a volume of 50 μl, followed by the addition of 50 μl of bacteria to give a final inoculum of 5×10^5 colony-forming units (CFU)/mL. The plates were incubated at 37° C. for 24 h, and the MICs were determined as the lowest peptide concentration that inhibited growth.
(§2) Various peptides of the invention were tested for antimicrobial activity as described in Example 1. The antimicrobial activity of these peptides was similarly tested against Gram-positive organisms, including Staphylococcus aureus.

[2] = system: methicillin resistant Staph. aureus (MRSA); type: cell-based, Staphylococcus aureus; details: for MIC: MH medium, 37° C., 24 h; for MIC GM, MRSA: geometric mean of MIC from 8 different isolates of MRSA
Description: as §1, §2

[3] = system: human red blood cells; details: for Fold improvement in HC50: compared to D-Piscidin 1 or D-Dermaseptin S4, 18 hours
Description: Peptide samples (concentrations determined by amino acid analysis) were added to 1% human erythrocytes in phosphate-buffered saline (100 mM NaCl, 80 mM Na2HPO4, 20 mM NaH2PO4, pH 7.4) and the reaction mixtures were incubated at 37° C. for 18 h in microtiter plates. Two-fold serial dilutions of the peptide samples were carried out. This determination was made by withdrawing aliquots from the hemolysis assays and removing unlysed erythrocytes by centrifugation (800×g). Hemoglobin release was determined spectrophotometrically at 570 nm. The control for 100% hemolysis was a sample of erythrocytes treated with water or 0.1% Triton-X 100. The control for no release of hemoglobin was a sample of 1% erythrocytes without any peptide added. […] The hemolytic activity was determined as the peptide concentration that caused 50% hemolysis of erythrocytes after 18 h (HC50). HC50 as determined from a plot of percent lysis versus peptide concentration (μM). The inventors also determined the hemolytic activity after 1 hour at 37° C.

CC[C@@H](C)[C@@H](NC(=O)[C@@H](Cc1c[nH]cn1)NC(=O)[C@@H](Cc1c[nH]cn1)NC(=O)[C@@H](Cc1ccccc1)NC(=O)[C@H](N)Cc1ccccc1)C(=O)N[C@H](Cc1ccccc1)C(=O)N[C@H](CCCNC(=N)N)C(=O)NCC(=O)N[C@H](CCCCN)C(=O)N[C@@H](C(=O)N[C@H](Cc1c[nH]cn1)C(=O)N[C@@H](C(=O)NCC(=O)N[C@H](CCCCN)C(=O)N[C@@H](C(=O)N[C@@H](C(=O)N[C@H](Cc1c[nH]cn1)C(=O)N[C@H](CCCNC(=N)N)C(=O)N[C@H](CC(C)C)C(=O)N[C@@H](C(=O)N[C@@H](C(=O)NCC(N)=O)[C@H](C)O)C(C)C)[C@H](C)CC)[C@H](C)O)C(C)C)C(C)C [D-Piscidin 1 I9K]
MIC ([1]; MSSA strain BL7429): 193 µM (≈ 499 µg/mL) | MIC ([1]; MSSA strain M21913): 193 µM (≈ 499 µg/mL) | MIC ([1]; MSSA strain M21935): 387 µM (≈ 1000 µg/mL) | MIC ([1]; MSSA strain M21991): 193 µM (≈ 499 µg/mL) | MIC ([1]; MSSA strain M22075): 387 µM (≈ 1000 µg/mL) | MIC ([1]; MSSA strain M22097): 193 µM (≈ 499 µg/mL) | MIC ([1]; MSSA strain M22111): 3.0 µM (≈ 7.76 µg/mL) | MIC ([1]; MSSA strain M22274): 773 µM (≈ 2000 µg/mL) | MIC ([1]; MSSA strain M22287): 773 µM (≈ 2000 µg/mL) | MIC ([1]; MSSA strain M22300): 773 µM (≈ 2000 µg/mL) | MIC ([1]; MSSA strain M22312): 773 µM (≈ 2000 µg/mL) | MIC ([1]; MSSA strain M22315): 773 µM (≈ 2000 µg/mL) | MIC GM, MSSA [1]: 273 µM (≈ 706 µg/mL) | MIC ([2]; MRSA strain M21742 (nose)): 96.7 µM (≈ 250 µg/mL) | MIC ([2]; MRSA strain M21756 (nose)): 387 µM (≈ 1000 µg/mL) | MIC ([2]; MRSA strain M22111 (ear)): 96.7 µM (≈ 250 µg/mL) | MIC ([2]; MRSA strain M22130): 12.1 µM (≈ 31.3 µg/mL) | MIC ([2]; MRSA strain M22224 (leg)): 96.7 µM (≈ 250 µg/mL) | MIC ([2]; MRSA strain M22354): 773 µM (≈ 2000 µg/mL) | MIC ([2]; MRSA strain M22360 (labia)): 3.0 µM (≈ 7.76 µg/mL) | MIC ([2]; MRSA strain M22424 (arm)): 773 µM (≈ 2000 µg/mL) | MIC GM, MRSA [2]: 96.7 µM (≈ 250 µg/mL) | % hemolysis ([3]; 1000 μg/mL (387 μM) for 1 hour): 32% | activity against human red blood cells ([3]; 18 hours incubation): inactive | Fold improvement in HC50 [3]: 54 fold

CC[C@@H](C)[C@@H](NC(=O)CNC(=O)[C@@H](CCCNC(=N)N)NC(=O)[C@@H](Cc1ccccc1)NC(=O)[C@H](NC(=O)[C@@H](Cc1c[nH]cn1)NC(=O)[C@@H](Cc1c[nH]cn1)NC(=O)[C@@H](Cc1ccccc1)NC(=O)[C@H](N)Cc1ccccc1)[C@H](C)CC)C(=O)N[C@@H](C(=O)N[C@H](Cc1c[nH]cn1)C(=O)N[C@H](CCCCN)C(=O)NCC(=O)N[C@H](CCCCN)C(=O)N[C@@H](C(=O)N[C@@H](C(=O)N[C@H](Cc1c[nH]cn1)C(=O)N[C@H](CCCNC(=N)N)C(=O)N[C@H](CC(C)C)C(=O)N[C@@H](C(=O)N[C@@H](C(=O)NCC(N)=O)[C@H](C)O)C(C)C)[C@H](C)CC)[C@H](C)O)C(C)C [D-Piscidin 1 V12K]
MIC ([1]; MSSA strain BL7429): 385 µM (≈ 1000 µg/mL) | MIC ([1]; MSSA strain M21913): 769 µM (≈ 2000 µg/mL) | MIC ([1]; MSSA strain M21935): 192 µM (≈ 499 µg/mL) | MIC ([1]; MSSA strain M21991): 769 µM (≈ 2000 µg/mL) | MIC ([1]; MSSA strain M22075): 385 µM (≈ 1000 µg/mL) | MIC ([1]; MSSA strain M22097): 385 µM (≈ 1000 µg/mL) | MIC ([1]; MSSA strain M22111): 6.0 µM (≈ 15.6 µg/mL) | MIC ([1]; MSSA strain M22274): 769 µM (≈ 2000 µg/mL) | MIC ([1]; MSSA strain M22287): 192 µM (≈ 499 µg/mL) | MIC ([1]; MSSA strain M22300): 24.0 µM (≈ 62.4 µg/mL) | MIC ([1]; MSSA strain M22312): 769 µM (≈ 2000 µg/mL) | MIC ([1]; MSSA strain M22315): 192 µM (≈ 499 µg/mL) | MIC GM, MSSA [1]: 229 µM (≈ 595 µg/mL) | MIC ([2]; MRSA strain M21742 (nose)): 385 µM (≈ 1000 µg/mL) | MIC ([2]; MRSA strain M21756 (nose)): 385 µM (≈ 1000 µg/mL) | MIC ([2]; MRSA strain M22111 (ear)): 96.1 µM (≈ 250 µg/mL) | MIC ([2]; MRSA strain M22130): 96.1 µM (≈ 250 µg/mL) | MIC ([2]; MRSA strain M22224 (leg)): 96.1 µM (≈ 250 µg/mL) | MIC ([2]; MRSA strain M22354): 96.1 µM (≈ 250 µg/mL) | MIC ([2]; MRSA strain M22360 (labia)): 3.0 µM (≈ 7.8 µg/mL) | MIC ([2]; MRSA strain M22424 (arm)): 769 µM (≈ 2000 µg/mL) | MIC GM, MRSA [2]: 114 µM (≈ 296 µg/mL) | Fold improvement in HC50 [3]: 19 fold

CC[C@@H](C)[C@@H](NC(=O)CNC(=O)[C@@H](CCCNC(=N)N)NC(=O)[C@@H](Cc1ccccc1)NC(=O)[C@H](NC(=O)[C@@H](Cc1c[nH]cn1)NC(=O)[C@@H](Cc1c[nH]cn1)NC(=O)[C@@H](Cc1ccccc1)NC(=O)[C@H](N)Cc1ccccc1)[C@H](C)CC)C(=O)N[C@@H](C(=O)N[C@H](Cc1c[nH]cn1)C(=O)N[C@@H](C(=O)NCC(=O)N[C@H](CCCCN)C(=O)N[C@@H](C(=O)N[C@@H](C(=O)N[C@H](Cc1c[nH]cn1)C(=O)N[C@H](CCCNC(=N)N)C(=O)N[C@H](CC(C)C)C(=O)N[C@@H](C(=O)N[C@@H](C(=O)NCC(N)=O)[C@H](C)O)C(C)C)[C@H](C)CC)[C@H](C)O)C(C)C)C(C)C [D-Piscidin 1, reference compound]
MIC ([1]; MSSA strain BL7429): 3.0 µM (≈ 7.71 µg/mL) | MIC ([1]; MSSA strain M21913): 3.0 µM (≈ 7.71 µg/mL) | MIC ([1]; MSSA strain M21935): 3.0 µM (≈ 7.71 µg/mL) | MIC ([1]; MSSA strain M21991): 6.1 µM (≈ 15.7 µg/mL) | MIC ([1]; MSSA strain M22075): 3.0 µM (≈ 7.71 µg/mL) | MIC ([1]; MSSA strain M22097): 6.1 µM (≈ 15.7 µg/mL) | MIC ([1]; MSSA strain M22111): 1.5 µM (≈ 3.86 µg/mL) | MIC ([1]; MSSA strain M22274): 3.0 µM (≈ 7.71 µg/mL) | MIC ([1]; MSSA strain M22287): 3.0 µM (≈ 7.71 µg/mL) | MIC ([1]; MSSA strain M22300): 3.0 µM (≈ 7.71 µg/mL) | MIC ([1]; MSSA strain M22312): 6.1 µM (≈ 15.7 µg/mL) | MIC ([1]; MSSA strain M22315): 3.0 µM (≈ 7.71 µg/mL) | MIC GM, MSSA [1]: 3.4 µM (≈ 8.74 µg/mL) | MIC ([2]; MRSA strain M21742 (nose)): 3.0 µM (≈ 7.71 µg/mL) | MIC ([2]; MRSA strain M21756 (nose)): 3.0 µM (≈ 7.71 µg/mL) | MIC ([2]; MRSA strain M22111 (ear)): 3.0 µM (≈ 7.71 µg/mL) | MIC ([2]; MRSA strain M22130): 3.0 µM (≈ 7.71 µg/mL) | MIC ([2]; MRSA strain M22224 (leg)): 3.0 µM (≈ 7.71 µg/mL) | MIC ([2]; MRSA strain M22354): 3.0 µM (≈ 7.71 µg/mL) | MIC ([2]; MRSA strain M22360 (labia)): 1.5 µM (≈ 3.86 µg/mL) | MIC ([2]; MRSA strain M22424 (arm)): 3.0 µM (≈ 7.71 µg/mL) | MIC GM, MRSA [2]: 2.8 µM (≈ 7.2 µg/mL) | Fold improvement in HC50 [3]: 1.0 fold
